Measured values taken from patent US20240116985A1, “STAPLED PEPTIDES AND METHODS THEREOF” (priority 2020, published 2024).
Converted amounts (≈) assume the structure as drawn. Like-named read-outs stand apart in the source and are kept apart here.

Columns and labels:
[1] = molecular target: T1, beta-catenin/TCF4 engagement (Homo sapiens, UniProt P35222); experiment: Nano-BRET target engagement assay (B-cat-Halo & TCF4-Luc in HEK293 cells); type: cell-based; settings: absolute IC50; read-out: NanoBRET Abs IC50
T1 construct: expressed in transfected cells; host or cells: HEK293
T1 sequence (P35222 1-781): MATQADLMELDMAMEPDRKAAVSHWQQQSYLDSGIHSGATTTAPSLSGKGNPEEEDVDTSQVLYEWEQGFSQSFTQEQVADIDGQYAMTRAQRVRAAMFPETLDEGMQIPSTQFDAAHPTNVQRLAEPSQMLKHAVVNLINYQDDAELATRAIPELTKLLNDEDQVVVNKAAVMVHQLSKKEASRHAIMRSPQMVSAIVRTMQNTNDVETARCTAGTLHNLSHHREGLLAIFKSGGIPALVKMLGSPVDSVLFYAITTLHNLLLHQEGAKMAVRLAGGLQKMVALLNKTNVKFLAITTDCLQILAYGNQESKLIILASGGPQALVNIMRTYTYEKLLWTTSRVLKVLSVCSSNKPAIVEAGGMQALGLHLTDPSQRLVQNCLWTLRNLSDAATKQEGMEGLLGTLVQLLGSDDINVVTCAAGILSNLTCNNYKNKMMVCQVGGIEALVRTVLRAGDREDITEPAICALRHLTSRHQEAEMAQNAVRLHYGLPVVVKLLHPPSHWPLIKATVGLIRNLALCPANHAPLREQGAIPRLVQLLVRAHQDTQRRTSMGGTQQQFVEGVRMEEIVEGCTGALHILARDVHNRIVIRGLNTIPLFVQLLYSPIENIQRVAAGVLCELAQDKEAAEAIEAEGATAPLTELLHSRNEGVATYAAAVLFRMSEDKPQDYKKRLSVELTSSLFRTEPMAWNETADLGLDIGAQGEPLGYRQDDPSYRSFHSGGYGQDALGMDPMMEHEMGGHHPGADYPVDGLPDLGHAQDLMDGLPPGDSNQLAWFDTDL

[2] = molecular target: T2, full-length beta-Catenin (Uniprot ID P35222) (Homo sapiens, UniProt P35222); experiment: Fluorescence polarization IC50 (beta-catenin / 5FAM-TCF4 10-53 competition); type: binding; settings: read-out: beta-Catenin FP IC50
T2 construct: 10 nM full-length beta-Catenin (Uniprot ID P35222)
T2 sequence (P35222 1-781): T1 sequence (P35222 1-781)

[3] = Solubility in PBS; type: physicochemical
How it was run: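 Read-out is the HPLC peak area of the supernatant from ultracentrifuged PBS solution, scaled against a 50 μM peptide DMSO injection; value reported as [(PBS area)/(DMSO area)]*50 uM.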

Row | SMILES | IC50 [1] [µM] | IC50 [2] [nM] | Solubility ([3]; Solubility (uM)) [µM] | IC50 ([2]; fluorescence polarization) [nM] | Solubility [3] [µM]
1 | CC(=O)N1CCC[C@]12CC=CCCCC1(CCCC=CCCCOC(=O)N3CC[C@@](C(=O)N[C@@H](Cc4ccccc4Cl)C(=O)N[C@@H](Cc4csc5ccccc45)C(=O)N[C@@H](CCC(N)=O)C(N)=O)(C3)NC(=O)[C@H](CC(N)=O)NC(=O)[C@H](Cc3ccccc3)NC(=O)[C@H](C)NC(=O)[C@H](CCCCNC(C)C)NC(=O)[C@H](CC(=O)O)NC(=O)[C@H](CC(=O)O)NC1=O)NC(=O)[C@H](CC(C)(C)C)NC(=O)[C@H](CC(=O)O)NC2=O (stereo partly drawn) [I-1131, Ac-PL3-Asp-Npg-B5-Asp-Asp-iPrLys-Ala-Phe-Asn-PyrS2-2C1F-BztA-Gln-NH2] | 18.8 | 7 | 39 (≈ 79.8 µg/mL) | – | –
2 | CC(=O)N1CCC[C@]12CC=CCCCC1(CCCC=CCCCOC(=O)N3CC[C@@](C(=O)N[C@@H](Cc4ccccc4Cl)C(=O)N[C@@H](Cc4csc5ccccc45)C(=O)N[C@@H](CCC(N)=O)C(N)=O)(C3)NC(=O)[C@H](CC(N)=O)NC(=O)[C@H](Cc3ccccc3)NC(=O)[C@H](CCCCNC(C)C)NC(=O)[C@H](C)NC(=O)[C@H](CC(=O)O)NC(=O)[C@H](CC(=O)O)NC1=O)NC(=O)[C@H](CC(C)(C)C)NC(=O)[C@H](CC(=O)O)NC2=O (stereo partly drawn) [I-1132, Ac-PL3-Asp-Npg-B5-Asp-Asp-Ala-iPrLys-Phe-Asn-PyrS2-2C1F-BztA-Gln-NH2] | > 20 | 21 | 49 (≈ 100 µg/mL) | – | –
3 | CC(=O)N1CCC[C@]12CC=CCCCC1(CCCC=CCCCOC(=O)N3CC[C@@](C(=O)N[C@@H](Cc4ccccc4Cl)C(=O)N[C@@H](Cc4csc5ccccc45)C(=O)N[C@@H](C(N)=O)[C@H](C)O)(C3)NC(=O)[C@H](CC(C)C)NC(=O)[C@H](Cc3ccccc3)NC(=O)[C@H](C)NC(=O)[C@H](C)NC(=O)[C@H](CC(=O)O)NC(=O)[C@H](CC(=O)O)NC1=O)NC(=O)[C@H](CC1CCCCC1)NC(=O)[C@H](CC(=O)O)NC2=O (stereo partly drawn) [I-1140, Ac-PL3-Asp-Cha-B5-Asp-Asp-Ala-Ala-Phe-Leu-PyrS2-2C1F-BztA-dThr-NH2] | 32.5 | – | – | 33 | 10 (≈ 19.4 µg/mL)
4 | CC(=O)N1CCC[C@]12CC=CCCCC1(CCCC=CCCCOC(=O)N3CC[C@@](C(=O)N[C@@H](Cc4ccccc4Cl)C(=O)N[C@@H](Cc4csc5ccccc45)C(=O)N[C@H](C(N)=O)[C@@H](C)O)(C3)NC(=O)[C@H](CO)NC(=O)[C@H](Cc3ccccc3)NC(=O)[C@H](C)NC(=O)[C@H](C)NC(=O)[C@H](CC(=O)O)NC(=O)[C@H](CC(=O)O)NC1=O)NC(=O)[C@H](Cc1ccccc1)NC(=O)[C@H](CC(=O)O)NC2=O (stereo partly drawn) [I-1141, Ac-PL3-Asp-Phe-B5-Asp-Asp-Ala-Ala-Phe-Ser-PyrS2-2C1F-BztA-Thr-NH2] | 27.3 | – | 44 (≈ 84.2 µg/mL) | 13 | –
5 | CC(=O)N1CCC[C@]12CC=CCCCC1(CCCC=CCCCOC(=O)N3CC[C@@](C(=O)N[C@@H](Cc4ccccc4Cl)C(=O)N[C@@H](Cc4csc5ccccc45)C(=O)N[C@@H](CCO)C(N)=O)(C3)NC(=O)[C@H](CO)NC(=O)[C@H](Cc3ccccc3)NC(=O)[C@H](C)NC(=O)[C@H](C)NC(=O)[C@H](CC(=O)O)NC(=O)[C@H](CC(=O)O)NC1=O)NC(=O)[C@H](Cc1ccccc1)NC(=O)[C@H](CC(=O)O)NC2=O (stereo partly drawn) [I-1143, Ac-PL3-Asp-Phe-B5-Asp-Asp-Ala-Ala-Phe-Ser-PyrS2-2C1F-BztA-Hse-NH2] | 33.1 | – | 44 (≈ 84.2 µg/mL) | 12 | –
6 | CC(=O)N1CCC[C@]12CC=CCCCC1(CCCC=CCCCOC(=O)N3CC[C@@](C(=O)N[C@@H](Cc4ccccc4Cl)C(=O)N[C@@H](Cc4csc5ccccc45)C(=O)N[C@@H](C(N)=O)[C@H](C)O)(C3)NC(=O)[C@H](CC(C)C)NC(=O)[C@H](Cc3ccccc3)NC(=O)[C@H](C)NC(=O)[C@H](C)NC(=O)[C@H](CC(=O)O)NC(=O)[C@H](CC(=O)O)NC1=O)NC(=O)[C@H](Cc1ccccc1)NC(=O)[C@H](CC(=O)O)NC2=O (stereo partly drawn) [I-1146, Ac-PL3-Asp-Phe-B5-Asp-Asp-Ala-Ala-Phe-Leu-PyrS2-2C1F-BztA-dThr-NH2] | > 20 | – | 18 (≈ 34.9 µg/mL) | 33 | –
7 | CC(=O)N1CCC[C@]12CC=CCCCC1(CCCC=CCCCOC(=O)N3CC[C@@](C(=O)N[C@@H](Cc4ccccc4Cl)C(=O)N[C@@H](Cc4csc5ccccc45)C(=O)N[C@@H](CCC(N)=O)C(N)=O)(C3)NC(=O)[C@H](CO)NC(=O)[C@H](Cc3ccccc3)NC(=O)[C@H](CC(C)C)NC(=O)[C@H](C)NC(=O)[C@H](CC(=O)O)NC(=O)[C@H](CC(=O)O)NC1=O)NC(=O)[C@H](CC1CCCCC1)NC(=O)[C@H](CC(=O)O)NC2=O (stereo partly drawn) [I-1148, Ac-PL3-Asp-Cha-B5-Asp-Asp-Ala-Leu-Phe-Ser-PyrS2-2C1F-BztA-Gln-NH2] | 21.5 | – | – | 50 | 10 (≈ 19.9 µg/mL)
8 | CC(=O)N1CCC[C@]12CC=CCCCC1(CCCC=CCCCOC(=O)N3CC[C@@](C(=O)N[C@@H](Cc4ccccc4Cl)C(=O)N[C@@H](Cc4csc5ccccc45)C(=O)N[C@@H](CO)C(N)=O)(C3)NC(=O)[C@H]([C@@H](C)O)NC(=O)[C@H](Cc3ccccc3)NC(=O)[C@H](C)NC(=O)[C@H](CC(C)C)NC(=O)[C@H](CC(=O)O)NC(=O)[C@H](CC(=O)O)NC1=O)NC(=O)[C@H](CC1CCCCC1)NC(=O)[C@H](CC(=O)O)NC2=O (stereo partly drawn) [I-1150, Ac-PL3-Asp-Cha-B5-Asp-Asp-Leu-Ala-Phe-Thr-PyrS2-2C1F-BztA-Ser-NH2] | 21.4 | – | 18 (≈ 35.3 µg/mL) | 12 | –

More lines, now with the values ahead:

Row | IC50 [1] [µM] | IC50 [2] [nM] | Solubility ([3]; Solubility (uM)) [µM] | IC50 ([2]; fluorescence polarization) [nM] | Solubility [3] [µM] | SMILES
9 | 7.6 | 6 | 15 (≈ 29.8 µg/mL) | – | – | CC(=O)N1CCC[C@]12CC=CCCCC1(CCCC=CCCCOC(=O)N3CC[C@@](C(=O)N[C@@H](Cc4ccccc4Cl)C(=O)N[C@@H](Cc4csc5ccccc45)C(=O)N[C@@H](CCCCNC(C)C)C(N)=O)(C3)NC(=O)[C@H](CC(N)=O)NC(=O)[C@H](Cc3ccccc3)NC(=O)[C@H](C)NC(=O)[C@H](C)NC(=O)[C@H](CC(=O)O)NC(=O)[C@H](CC(=O)O)NC1=O)NC(=O)[C@H](CC(C)(C)C)NC(=O)[C@H](CC(=O)O)NC2=O (stereo partly drawn) [I-1130, Ac-PL3-Asp-Npg-B5-Asp-Asp-Ala-Ala-Phe-Asn-PyrS2-2C1F-BztA-iPrLys-NH2]
10 | 14.9 | – | 40 (≈ 76.7 µg/mL) | 16 | – | CC(=O)N1CCC[C@]12CC=CCCCC1(CCCC=CCCCOC(=O)N3CC[C@@](C(=O)N[C@@H](Cc4ccccc4Cl)C(=O)N[C@@H](Cc4csc5ccccc45)C(=O)N[C@@H](C(N)=O)[C@H](C)O)(C3)NC(=O)[C@H](CO)NC(=O)[C@H](Cc3ccccc3)NC(=O)[C@H](C)NC(=O)[C@H](C)NC(=O)[C@H](CC(=O)O)NC(=O)[C@H](CC(=O)O)NC1=O)NC(=O)[C@H](CC1CCCCC1)NC(=O)[C@H](CC(=O)O)NC2=O (stereo partly drawn) [I-1136, Ac-PL3-Asp-Cha-B5-Asp-Asp-Ala-Ala-Phe-Ser-PyrS2-2C1F-BztA-dThr-NH2]
11 | > 20 | – | 46 (≈ 88 µg/mL) | 22 | – | CC(=O)N1CCC[C@]12CC=CCCCC1(CCCC=CCCCOC(=O)N3CC[C@@](C(=O)N[C@@H](Cc4ccccc4Cl)C(=O)N[C@@H](Cc4csc5ccccc45)C(=O)N[C@@H](C(N)=O)[C@H](C)O)(C3)NC(=O)[C@H](CO)NC(=O)[C@H](Cc3ccccc3)NC(=O)[C@H](C)NC(=O)[C@H](C)NC(=O)[C@H](CC(=O)O)NC(=O)[C@H](CC(=O)O)NC1=O)NC(=O)[C@H](Cc1ccccc1)NC(=O)[C@H](CC(=O)O)NC2=O (stereo partly drawn) [I-1142, Ac-PL3-Asp-Phe-B5-Asp-Asp-Ala-Ala-Phe-Ser-PyrS2-2C1F-BztA-dThr-NH2]
12 | 30.6 | – | – | 18 | 10 (≈ 19.4 µg/mL) | CC(=O)N1CCC[C@]12CC=CCCCC1(CCCC=CCCCOC(=O)N3CC[C@@](C(=O)N[C@@H](Cc4ccccc4Cl)C(=O)N[C@@H](Cc4csc5ccccc45)C(=O)N[C@H](C(N)=O)[C@@H](C)O)(C3)NC(=O)[C@H](CC(C)C)NC(=O)[C@H](Cc3ccccc3)NC(=O)[C@H](C)NC(=O)[C@H](C)NC(=O)[C@H](CC(=O)O)NC(=O)[C@H](CC(=O)O)NC1=O)NC(=O)[C@H](Cc1ccccc1)NC(=O)[C@H](CC(=O)O)NC2=O (stereo partly drawn) [I-1145, Ac-PL3-Asp-Phe-B5-Asp-Asp-Ala-Ala-Phe-Leu-PyrS2-2C1F-BztA-Thr-NH2]
13 | 21.1 | – | 23 (≈ 45.7 µg/mL) | 10 | – | CC(=O)N1CCC[C@]12CC=CCCCC1(CCCC=CCCCOC(=O)N3CC[C@@](C(=O)N[C@@H](Cc4ccccc4Cl)C(=O)N[C@@H](Cc4csc5ccccc45)C(=O)N[C@@H](CCC(N)=O)C(N)=O)(C3)NC(=O)[C@H](CO)NC(=O)[C@H](Cc3ccccc3)NC(=O)[C@H](C)NC(=O)[C@H](CC(C)C)NC(=O)[C@H](CC(=O)O)NC(=O)[C@H](CC(=O)O)NC1=O)NC(=O)[C@H](CC1CCCCC1)NC(=O)[C@H](CC(=O)O)NC2=O (stereo partly drawn) [I-1147, Ac-PL3-Asp-Cha-B5-Asp-Asp-Leu-Ala-Phe-Ser-PyrS2-2C1F-BztA-Gln-NH2]
